Measurements taken from patent US7951796B2 (priority 2005, dated 2011).

Columns and labels:
[1] = system: cellular cholesterol in ScN2a cells; format: cell-based, mouse
[2] = system: RML scrapie prion infection; format: in vivo, mouse (transgene TG 20); conditions: TG 20 mice

| SMILES | cholesterol distribution (filipin staining) [1] | time to death of prion disease ([2]; intracerebral RML scrapie, 2 mg per mouse by gavage three times weekly for eight weeks, untreated control 92±4 days) [days] | lengthening of the survival time ([2]; versus untreated control, Student's t test p<0.0001) [%] |
| --- | --- | --- | --- |
| CCN(CC)CCCC(C)Nc1c2ccc(Cl)cc2nc2ccc(OC)cc12 (stereo not shown) [Quinacrin, reference compound] | redistribution was revealed to intracellular compartments | – | – |
| COc1ccc2nc3cc(Cl)ccc3c(NCCCCN3CCN(CCCN4c5ccccc5CCc5ccccc54)CC3)c2c1 [compound (10), (6-chlor-2-methoxy-acridine-9-yl)-(4-{4-[3-(10,11-dihydro-dibenzo[b,f]azepine-5-yl)-propyl]-piperazine-1-yl}-butyl)-amine] | redistribution was revealed to intracellular compartments | 100 ± 5 | 10 |
